In ChEMBL document CHEMBL1122478, “Tricyclic triarylethylene antiestrogens: dibenz[b,f]oxepins, dibenzo[b,f]thiepins, dibenzo[a,e]cyclooctenes, and dibenzo[b,f]thiocins” (1983):

How the values were obtained:
Assay type in all cases: functional
Rattus norvegicus [1] = organism: Rattus norvegicus; assay: Minimum fully effective dose that prevented implantation of eggs in three out of three rats (MFED) (antifertility)
Mus musculus [2] = assay: Sedative activity measured after ip administration to female mice and checked for their horizontal movement at a dose of 1 mg/Kg
Mus musculus [3] = assay: Sedative activity measured after ip administration to female mice and checked for their horizontal movement at a dose of 5 mg/Kg
Mus musculus [4] = assay: Sedative activity measured after ip administration to female mice and checked for their horizontal movement at a dose of 10 mg/Kg
Rattus norvegicus [5] = organism: Rattus norvegicus; assay: Dose prevented implantation in two out of 3 rats
Rattus norvegicus [6] = organism: Rattus norvegicus; assay: Dose prevented implantation in two out of 3 rats;
Rattus norvegicus [7] = organism: Rattus norvegicus; assay: Dose prevented implantation in two out of three rats

## C=CCOc1ccc2c(c1)SCc1ccccc1/C(CC)=C\2c1ccccc1
Rattus norvegicus [1]
  MFED: 5 mg/kg

## C=CCOc1ccc2c(c1)Sc1ccccc1C(CC)=C2c1ccccc1
Mus musculus [2]
  Reduction in movement: 48%
Rattus norvegicus [1]
  MFED: >25 mg/kg
Mus musculus [3]
  Reduction in movement: 76%

## CCC1=C(c2ccc(O)cc2)c2ccc(OCC(O)CO)cc2Sc2ccccc21 (centres undefined)
Rattus norvegicus [1]
  MFED: 5 mg/kg

## CCC1=C(c2ccc(O)cc2)c2ccc(OCCN(C)C)cc2Sc2ccccc21
Mus musculus [4]
  Reduction in movement: 45%
Rattus norvegicus [1]
  MFED: 0.5 mg/kg

## C=CCOc1ccc2c(c1)Oc1ccccc1C(CC)=C2c1ccc(O)cc1
Rattus norvegicus [1]
  MFED: >25 mg/kg

## C=CCOc1ccc2c(c1)Sc1ccccc1C(CC)=C2c1ccc(O)cc1
Rattus norvegicus [1]
  MFED: 5 mg/kg

## CCC1=C(c2ccc(O)cc2)c2ccc(OCCN(C)C)cc2Oc2ccccc21
Rattus norvegicus [1]
  MFED: 10 mg/kg
Mus musculus [3]
  Reduction in movement: 70%

## CCC1=C(c2ccccc2)c2ccc(OCC(O)CO)cc2Oc2ccccc21 (centres undefined)
Rattus norvegicus [1]
  MFED: 10 mg/kg

## C=CCOc1ccc2c(c1)Oc1ccccc1C(CC)=C2c1ccccc1
Rattus norvegicus [1]
  MFED: >25 mg/kg

## CCC1=C(c2ccccc2)c2ccc(O)cc2Sc2ccccc21
Mus musculus [2]
  Reduction in movement: 34%
Mus musculus [4]
  Reduction in movement: 72%
Rattus norvegicus [1]
  MFED: >5 mg/kg
Mus musculus [3]
  Reduction in movement: 60%

## CC/C1=C(\c2ccccc2)c2ccc(OCCN(C)C)cc2SCc2ccccc21
Rattus norvegicus [1]
  MFED: 0.5 mg/kg

## CCC1=C(c2ccc(O)cc2)c2ccc(OCC(O)CO)cc2Oc2ccccc21 (centres undefined)
Rattus norvegicus [5]
  Dose: 10 mg/kg
Rattus norvegicus [1]
  MFED: 25 mg/kg
Mus musculus [3]
  Reduction in movement: 61%

## C=CCOc1ccc2c(c1)SCc1ccccc1/C(CC)=C\2c1ccc(O)cc1
Rattus norvegicus [5]
  Dose: ~10 mg/kg
Rattus norvegicus [1]
  MFED: 25 mg/kg

## CC/C1=C(\c2ccccc2)c2ccc(OCC(O)CO)cc2SCc2ccccc21 (centres undefined)
Rattus norvegicus [6]
  Dose: 5 mg/kg

## CC/C1=C(\c2ccc(O)cc2)c2ccc(OCCN(C)C)cc2SCc2ccccc21
Rattus norvegicus [1]
  MFED: 0.5 mg/kg
Mus musculus [3]
  Reduction in movement: 61%

## CCC1=C(c2ccccc2)c2ccc(OCCN(C)C)cc2Oc2ccccc21
Rattus norvegicus [7]
  Dose: ~10 mg/kg
Rattus norvegicus [1]
  MFED: 25 mg/kg

## CCC1=C(c2ccccc2)c2ccc(OCC(O)CO)cc2Sc2ccccc21 (centres undefined)
Rattus norvegicus [5]
  Dose: ~25 mg/kg
Mus musculus [2]
  Reduction in movement: 33%
Mus musculus [3]
  Reduction in movement: 84%

## CC/C1=C(\c2ccc(O)cc2)c2ccc(OCC(O)CO)cc2SCc2ccccc21 (centres undefined)
Rattus norvegicus [1]
  MFED: 5 mg/kg
Mus musculus [3]
  Reduction in movement: 62%

## CCC1=C(c2ccccc2)c2ccc(OCCN(C)C)cc2Sc2ccccc21
Rattus norvegicus [5]
  Dose: ~1 mg/kg
Mus musculus [2]
  Reduction in movement: 49%
Mus musculus [4]
  Reduction in movement: 46%
Rattus norvegicus [1]
  MFED: 5 mg/kg

## CN(C)CCCN1c2ccccc2Sc2ccc(Cl)cc21 [CHLORPROMAZINE]
Mus musculus [2]
  Reduction in movement: 73%

## CC/C(=C(\c1ccccc1)c1ccc(OCCN(C)C)cc1)c1ccccc1 [TAMOXIFEN]
Rattus norvegicus [1]
  MFED: 0.1 mg/kg
